According to patent publication US20040209318A1, “Reagents and methods for the detection and quantification of vancomycin in bilogical fluids” (priority 1995, published 2004):
Read-outs that look alike come from different tables or passages of the source.

Experiments:
[1] = molecular target: anti-vancomycin Fab fragment; experiment: BIAcore solution competition, equilibrium dissociation constant; type: binding, mouse
Description: Biosensor surfaces were regenerated after each injection with successive 1 minute pulses of 6 M, 6M, and 1.5 M guanidine hydrochloride. Initial rates of binding of anti-vancomycin Fab fragment to the biosensor surface were measured over a 15 second window beginning 20 seconds postinjection. Data was evaluated by non-linear regression analysis using the solution affinity model built into BIAevaluation 3.0 software (BIAcore, Inc).
The binding affinities of several vancomycin analogs and tracers for anti-vancomycin Fab fragment were determined from solution competition experiments carried out on a BIAcore 2000. Initially, known concentrations of anti-vancomycin Fab fragment (0-22 nM) were injected over the aminoalkyl vancomycin biosensor surface. The initial rate of binding for each anti-vancomycin Fab fragment concentration was obtained by averaging the observed binding rate over a […] window beginning 20 seconds post injection. Data from the first 20 seconds of each sensorgram were omitted due to sample dispersion effects at the start of injections. A plot of initial binding rate versus concentration of anti-vancomycin Fab fragment was fit using a 4-parameter logistic (general model in BIAevaluation 3.0) providing a standard curve. […] A fixed concentration of anti-vancomycin Fab fragment (20 nM) was then mixed with twelve concentrations of each vancomycin analog or tracer and allowed to reach equilibrium. The equilibrium mixtures were individually injected over the aminoalkyl vancomycin biosensor surface, and the concentration of free anti-vancomycin Fab fragment remaining was quantitated by determination of the initial rate of binding to the biosensor surface as described above. A plot of free anti-vancomycin Fab fragment versus total concentration of added analog or tracer provides a competition curve. […] The data points represent the experimentally determined concentrations of free anti-vancomycin Fab fragment in equilibrium solutions at a given concentration of soluble analog or tracer. The curves represent the best nonlinear fit of the data using equation 1 (solution affinity model in BIAevaluation software) below: [formula]
where Fabτ is the concentration of free anti-vancomycin Fab fragment in equilibrium solutions, Fabτ is the total concentration of anti-vancomycin Fab fragment in solution (20 nM), A is the total concentration of added vancomycin analog or tracer, and KD is the equilibrium dissociation constant for the binding of the vancomycin analog or tracer to anti-vancomycin Fab fragment in solution.

[2] = system: anti-vancomycin Fab fragment; details: substance immobilized on CM-5 sensor chip
Description: (§1) Briefly, a continuous flow of HBS buffer at 10 μL/minute was initiated over the biosensor surface. The carboxymethylated dextran matrix on the sensor surface was activated by a 3.5 minute injection of a solution of 0.05 M HNS and 0.2 M EDAC. […] Blank surfaces were generated under identical conditions omitting the ligand immobilization step.
Initial attempts to generate a biosensor surface involved immobilization of vancomycin to the activated carboxymethyl dextran surface of a CM-5 sensor chip through the primary amine of the vancosamine sugar moiety.

[3] = cited from earlier work
[4] = 0.5 μM
Description: as §1
For these studies, an (N^ε-acetyl)KDADA tripeptide containing an aminocaproate linker from the amino terminus was immobilized via amine coupling to an activated carboxymethyl dextran surface of a CM-5 sensor chip.

[5] = in solution, 20 nM Fab fragment, read-out: Equilibrium Dissociation Constant (KD)

Row | Kd [1, 5] [nM] | Molecule | other results
1 | 1200 ± 100 | CNC(CC(C)C)C(=O)NC1C(=O)NC(CC(N)=O)C(=O)NC2C(=O)NC3C(=O)NC(C(=O)NC(C(=O)O)c4cc(O)cc(O)c4-c4cc3ccc4O)C(O)c3ccc(c(Cl)c3)Oc3cc2cc(c3OC2OC(CO)C(O)C(O)C2OC2CC(C)(NC(=O)CCCN(C(=O)c3c4ccccc4[n+](CCCS(=O)(=O)[O-])c4ccccc34)S(=O)(=O)c3ccc(C)cc3)C(O)C(C)O2)Oc2ccc(cc2Cl)C1O (stereo not shown) [compound 15] | –
2 | 42000 | aglucovancomycin [compound 6] | –
3 | 488 ± 34 | Crystalline degradation product (CDP) [compound 10] | –
4 | ≥ 50000 | AglucoCDP [compound 11] | –

Row | Molecule | Kd [1, 5] [nM] | other results
5 | CN[C@H](CC(C)C)C(=O)N[C@H]1C(=O)N[C@@H](CC(N)=O)C(=O)N[C@H]2C(=O)N[C@H]3C(=O)N[C@H](C(=O)N[C@H](C(=O)O)c4cc(O)cc(O)c4-c4cc3ccc4O)[C@H](O)c3ccc(c(Cl)c3)Oc3cc2cc(c3O[C@@H]2O[C@H](CO)[C@@H](O)[C@H](O)[C@H]2O[C@H]2C[C@](C)(N)[C@H](O)[C@H](C)O2)Oc2ccc(cc2Cl)[C@H]1O [vancomycin (1), vancomycin] | ≤ 0.2 | binding capacity (Rumax) of biosensor surface [2]: minimal binding capacity; Kd ([1]; in the presence of (Nα,Nε-diacetyl)KDADA tripeptide (500 μM), read-out: KD): ≤ 0.2 nM; half life ([3]; normal patients): 5 to 11 h; half life ([3]; patients with renal insufficiency): 48 to 120 h; instrumental response at equilibrium [4]: approximately 50 Rus
